Measurements from ChEMBL document CHEMBL4130394, “Novel 6-substituted benzoyl and non-benzoyl straight chain pyrrolo[2,3-d]pyrimidines as potential antitumor agents with multitargeted inhibition of TS, GARFTase and AICARFTase” (Eur J Med Chem, 2017).
Blank lines part the entries; values can stand above or below the compound they belong to. The source made the active and inactive calls. The calls are words filed in the database; no cut-off is given here.

Legend:
[1] = biological target: T1, Thymidylate synthase/GAR transformylase/AICAR transformylase (Homo sapiens, UniProt P04818+P31939+P22102); experiment: Inhibition of TS/AICARFTase/GARFTase in human KB cells assessed as reduction in cell proliferation in folate free medium after 72 hrs in presence of leucovorin by MTT assay; format: cell-based
[2] = tested on: SW-620; experiment: Antiproliferative activity against human SW620 cells in folate free medium after 72 hrs in presence of leucovorin by MTT assay; format: functional, cell-based; settings: SW-620, 72 h
[3] = tested on: MCF7; experiment: Antiproliferative activity against human MCF7 cells in folate free medium after 72 hrs in presence of leucovorin by MTT assay; format: functional, cell-based; settings: MCF7, 72 h
[4] = biological target: Thymidylate synthase (Homo sapiens) (UniProt P04818); experiment: Inhibition of thymidylate synthase in human KB cells assessed as reduction in cell proliferation up to 1 uM after 72 hrs in presence of excess of thymidine by MTT assay; format: cell-based
[5] = biological target: GAR transformylase/AICAR transformylase (Homo sapiens) (UniProt P31939+P22102); experiment: Inhibition of AICARFTase/GARFTase in human KB cells assessed as reduction in cell proliferation up to 1 uM after 72 hrs in presence of excess of adenosine by MTT assay; format: cell-based
[6] = biological target: T1, Thymidylate synthase/GAR transformylase/AICAR transformylase; experiment: Inhibition of TS/AICARFTase/GARFTase in human KB cells assessed as reduction in cell proliferation up to 1 uM after 72 hrs in presence of excess of thymidine and adenosine by MTT assay; format: cell-based
[7] = biological target: T2, Bifunctional purine biosynthesis protein ATIC (Homo sapiens, UniProt P31939); experiment: Inhibition of AICARFTase in human KB cells assessed as reduction in cell proliferation up to 1 uM after 72 hrs in presence of excess of AICA by MTT assay; format: cell-based
Target sequence in this assay (P31939 whole entry, looked up): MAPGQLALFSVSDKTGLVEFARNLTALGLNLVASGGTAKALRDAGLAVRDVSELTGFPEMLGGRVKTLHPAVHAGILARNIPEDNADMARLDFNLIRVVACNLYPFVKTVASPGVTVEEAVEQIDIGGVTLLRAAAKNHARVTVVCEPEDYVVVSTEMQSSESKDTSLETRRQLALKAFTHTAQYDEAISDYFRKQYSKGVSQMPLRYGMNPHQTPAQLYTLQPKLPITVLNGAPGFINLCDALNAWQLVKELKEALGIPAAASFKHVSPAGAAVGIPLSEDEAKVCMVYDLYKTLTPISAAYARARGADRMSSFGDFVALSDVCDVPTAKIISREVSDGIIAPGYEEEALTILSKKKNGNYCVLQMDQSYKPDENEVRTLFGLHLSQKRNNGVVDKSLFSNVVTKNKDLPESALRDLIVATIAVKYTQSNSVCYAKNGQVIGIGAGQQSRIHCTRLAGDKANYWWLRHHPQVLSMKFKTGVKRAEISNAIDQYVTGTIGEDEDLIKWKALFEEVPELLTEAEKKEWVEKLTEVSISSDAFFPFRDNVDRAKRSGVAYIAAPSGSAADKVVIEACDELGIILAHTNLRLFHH

[8] = biological target: T3, Thymidylate synthase/AICAR transformylase (Homo sapiens) (UniProt P04818+P31939); experiment: Inhibition of TS/AICARFTase in human KB cells assessed as reduction in cell proliferation up to 1 uM after 72 hrs in presence of excess of thymidine and AICA by MTT assay; format: cell-based
[9] = tested on: KB; experiment: Cell cycle arrest in human KB cells assessed as accumulation at S phase at 10 uM after 96 hrs by propidium iodide staining based flow cytometry (reference value: 35.66%); format: functional
[10] = tested on: KB; experiment: Cell cycle arrest in human KB cells assessed as accumulation at G2 phase at 10 uM after 96 hrs by propidium iodide staining based flow cytometry (reference value: 9.59%); format: functional
[11] = tested on: KB; experiment: Cell cycle arrest in human KB cells assessed as accumulation at G1 phase at 10 uM after 96 hrs by propidium iodide staining based flow cytometry (reference value: 54.75%); format: functional
[12] = tested on: KB; experiment: Induction of apoptosis in human KB cells assessed as live cells at 10 uM after 48 hrs by Annexin V-FITC/propidium iodide staining based flow cytometry (reference value: 74.6%); format: functional
[13] = tested on: KB; experiment: Induction of apoptosis in human KB cells assessed as early apoptotic cells at 10 uM after 48 hrs by Annexin V-FITC/propidium iodide staining based flow cytometry (reference value: 16.9%); format: functional
[14] = tested on: KB; experiment: Induction of apoptosis in human KB cells assessed as late apoptotic cells at 10 uM after 48 hrs by Annexin V-FITC/propidium iodide staining based flow cytometry (reference value: 5.5%); format: functional
[15] = tested on: KB; experiment: Induction of apoptosis in human KB cells assessed as necrotic cells at 10 uM after 48 hrs by Annexin V-FITC/propidium iodide staining based flow cytometry (reference value: 3%); format: functional
[16] = biological target: T2, Bifunctional purine biosynthesis protein ATIC; experiment: Inhibition of recombinant human AICARFTase using AICAR as substrate incubated at 37 degC for 30 mins measured after overnight incubation at 4 degC
Target sequence in this assay (P31939 whole entry): as the sequence (P31939 whole entry, looked up) above

[17] = tested on: KB; experiment: Cell cycle arrest in human KB cells assessed as accumulation at S phase at 5 uM after 96 hrs by propidium iodide staining based flow cytometry (reference value: 35.66%); format: functional
[18] = tested on: KB; experiment: Cell cycle arrest in human KB cells assessed as accumulation at G2 phase at 5 uM after 96 hrs by propidium iodide staining based flow cytometry (reference value: 9.59%); format: functional
[19] = tested on: KB; experiment: Cell cycle arrest in human KB cells assessed as accumulation at G1 phase at 5 uM after 96 hrs by propidium iodide staining based flow cytometry (reference value: 54.75%); format: functional
[20] = tested on: KB; experiment: Inhibition of colony formation in human KB cells at 100 nM after 10 to 14 days by methylene blue staining based assay relative to control; format: functional
[21] = biological target: T2, Bifunctional purine biosynthesis protein ATIC; experiment: Inhibition of AICARFTase in human KB cells assessed as reduction in cell proliferation at 1 to 10 nM after 72 hrs in presence of excess of AICA by MTT assay; format: cell-based
Target sequence in this assay (P31939 whole entry, looked up): as above

[22] = biological target: T3, Thymidylate synthase/AICAR transformylase (Homo sapiens); experiment: Inhibition of TS/AICARFTase in human KB cells assessed as reduction in cell proliferation at 1 to 10 nM after 72 hrs in presence of excess of thymidine and AICA by MTT assay; format: cell-based
[23] = tested on: KB; experiment: Cell cycle arrest in human KB cells assessed as accumulation at S phase at 1 uM after 96 hrs by propidium iodide staining based flow cytometry (reference value: 35.66%); format: functional
[24] = tested on: KB; experiment: Cell cycle arrest in human KB cells assessed as accumulation at G2 phase at 1 uM after 96 hrs by propidium iodide staining based flow cytometry (reference value: 9.59%); format: functional
[25] = tested on: KB; experiment: Cell cycle arrest in human KB cells assessed as accumulation at G1 phase at 1 uM after 96 hrs by propidium iodide staining based flow cytometry (reference value: 54.75%); format: functional
[26] = tested on: KB; experiment: Induction of apoptosis in human KB cells assessed as live cells at 1 uM after 48 hrs by Annexin V-FITC/propidium iodide staining based flow cytometry (reference value: 74.6%); format: functional
[27] = tested on: KB; experiment: Induction of apoptosis in human KB cells assessed as early apoptotic cells at 1 uM after 48 hrs by Annexin V-FITC/propidium iodide staining based flow cytometry (reference value: 16.9%); format: functional
[28] = tested on: KB; experiment: Induction of apoptosis in human KB cells assessed as late apoptotic cells at 1 uM after 48 hrs by Annexin V-FITC/propidium iodide staining based flow cytometry (reference value: 5.5%); format: functional
[29] = tested on: KB; experiment: Induction of apoptosis in human KB cells assessed as necrotic cells at 1 uM after 48 hrs by Annexin V-FITC/propidium iodide staining based flow cytometry (reference value: 3%); format: functional
[30] = tested on: KB; experiment: Potency index, ratio of methotrexate IC50 to compound IC50 for human KB cells; format: functional
[31] = tested on: KB; experiment: Potency index, ratio of pemetrexed IC50 to compound IC50 for human KB cells; format: functional

T3 sequence (P04818 whole entry, looked up): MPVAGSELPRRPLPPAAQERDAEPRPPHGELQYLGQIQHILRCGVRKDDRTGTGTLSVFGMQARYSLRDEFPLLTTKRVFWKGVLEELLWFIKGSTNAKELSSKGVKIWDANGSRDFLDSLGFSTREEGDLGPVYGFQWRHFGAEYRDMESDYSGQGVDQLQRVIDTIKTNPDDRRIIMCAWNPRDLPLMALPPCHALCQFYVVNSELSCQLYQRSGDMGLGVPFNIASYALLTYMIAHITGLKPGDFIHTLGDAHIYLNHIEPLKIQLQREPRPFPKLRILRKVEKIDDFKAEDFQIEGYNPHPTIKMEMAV
T3 sequence (P31939 whole entry, looked up): as the sequence (P31939 whole entry, looked up) above
Thymidylate synthase (Homo sapiens), sequence (P04818 2-313 limits assumed): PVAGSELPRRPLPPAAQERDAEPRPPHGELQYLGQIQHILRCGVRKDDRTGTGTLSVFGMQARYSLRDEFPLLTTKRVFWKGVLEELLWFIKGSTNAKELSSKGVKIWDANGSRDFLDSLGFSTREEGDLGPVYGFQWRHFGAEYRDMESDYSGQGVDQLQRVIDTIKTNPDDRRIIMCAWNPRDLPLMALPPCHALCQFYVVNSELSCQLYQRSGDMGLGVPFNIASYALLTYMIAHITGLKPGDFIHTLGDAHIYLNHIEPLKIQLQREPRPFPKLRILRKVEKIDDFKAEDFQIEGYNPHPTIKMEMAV
T1 sequence (P04818 whole entry, looked up): as the sequence (P04818 whole entry, looked up) above
T1 sequence (P22102 whole entry, looked up): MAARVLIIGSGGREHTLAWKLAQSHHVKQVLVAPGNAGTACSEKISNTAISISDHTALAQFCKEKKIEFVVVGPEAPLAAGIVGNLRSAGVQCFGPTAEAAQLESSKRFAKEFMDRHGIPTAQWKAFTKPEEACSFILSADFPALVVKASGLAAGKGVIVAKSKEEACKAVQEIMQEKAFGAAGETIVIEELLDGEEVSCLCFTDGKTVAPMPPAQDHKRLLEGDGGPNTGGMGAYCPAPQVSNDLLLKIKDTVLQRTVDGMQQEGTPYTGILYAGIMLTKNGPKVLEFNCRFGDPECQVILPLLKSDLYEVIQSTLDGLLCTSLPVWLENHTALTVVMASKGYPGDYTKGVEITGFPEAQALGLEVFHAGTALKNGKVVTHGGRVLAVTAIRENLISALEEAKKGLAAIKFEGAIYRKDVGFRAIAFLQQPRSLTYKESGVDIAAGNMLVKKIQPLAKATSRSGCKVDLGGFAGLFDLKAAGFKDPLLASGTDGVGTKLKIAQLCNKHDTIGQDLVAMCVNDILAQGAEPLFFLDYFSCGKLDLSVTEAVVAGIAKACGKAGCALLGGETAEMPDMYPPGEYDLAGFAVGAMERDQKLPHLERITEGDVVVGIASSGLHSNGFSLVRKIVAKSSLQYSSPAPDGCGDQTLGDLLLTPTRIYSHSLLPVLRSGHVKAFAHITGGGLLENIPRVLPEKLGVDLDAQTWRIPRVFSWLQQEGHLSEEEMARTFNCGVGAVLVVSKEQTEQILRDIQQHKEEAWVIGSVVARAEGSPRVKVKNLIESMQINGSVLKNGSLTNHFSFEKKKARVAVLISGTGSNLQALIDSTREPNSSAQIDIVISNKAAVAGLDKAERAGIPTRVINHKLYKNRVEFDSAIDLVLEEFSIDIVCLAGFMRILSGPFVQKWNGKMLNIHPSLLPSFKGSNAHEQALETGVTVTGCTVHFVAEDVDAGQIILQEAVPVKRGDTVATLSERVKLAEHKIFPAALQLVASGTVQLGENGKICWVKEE
T1 sequence (P31939 whole entry, looked up): as the sequence (P31939 whole entry, looked up) above
GAR transformylase/AICAR transformylase (Homo sapiens), sequence (P22102 whole entry, looked up): as the sequence (P22102 whole entry, looked up) above
GAR transformylase/AICAR transformylase (Homo sapiens), sequence (P31939 whole entry, looked up): as the sequence (P31939 whole entry, looked up) above

Structure (SMILES): Nc1nc2[nH]c(CC(=O)NCCCCCC(=O)N[C@@H](CCC(=O)O)C(=O)O)cc2c(=O)[nH]1
- IC50 [1]: 1.4 ×10⁻⁴ microM
- IC50 [2]: 563 nM
- IC50 [3]: 1080 nM
- inhibition [4]: inactive
- inhibition [5]: inactive
- inhibition [6]: inactive
- inhibition [7]: Active
- inhibition [8]: Active

Structure (SMILES): Nc1nc2[nH]cc(CCc3ccc(C(=O)N[C@@H](CCC(=O)O)C(=O)O)cc3)c2c(=O)[nH]1 [PEMETREXED]
- IC50 [2]: 90 nM
- IC50 [3]: 650 nM
- Activity [9]: 38.05%
- Activity [10]: 0%
- Activity [11]: 61.95%
- Activity [12]: 10.2%
- Activity [13]: 67%
- Activity [14]: 21.8%
- Activity [15]: 1%

Structure (SMILES): CN(Cc1cnc2nc(N)nc(N)c2n1)c1ccc(C(=O)N[C@@H](CCC(=O)O)C(=O)O)cc1 [METHOTREXATE]
- IC50 [2]: 22 nM
- IC50 [3]: 97 nM

Structure (SMILES): Nc1nc2ccc(S(=O)(=O)Nc3ccc(C(=O)N[C@@H](CCC(=O)O)C(=O)O)cc3)cc2c(=O)[nH]1
- Ki [16]: 8 nM

Structure (SMILES): COc1cc([C@@H]2c3cc4c(cc3[C@@H](O[C@@H]3O[C@@H]5CO[C@@H](C)O[C@H]5[C@H](O)[C@H]3O)[C@H]3COC(=O)[C@H]23)OCO4)cc(OC)c1O [ETOPOSIDE]
- Activity [17]: 0%
- Activity [18]: 3.19%
- Activity [19]: 96.81%

Structure (SMILES): Nc1nc2[nH]c(CC(=O)Nc3ccc(C(=O)N[C@@H](CCC(=O)O)C(=O)O)cc3)cc2c(=O)[nH]1
- IC50 [1]: 7.5 ×10⁻³ microM
- IC50 [2]: 977 nM
- IC50 [3]: 1130 nM
- inhibition at 0.1 µM [20]: > 80%
- inhibition [21]: Active
- inhibition [22]: Active
- Activity [23]: 68.62%
- Activity [24]: 0%
- Activity [25]: 31.38%
- Activity [26]: 55.4%
- Activity [27]: 36.2%
- Activity [28]: 7.1%
- Activity [29]: 1.3%

More lines, main results first:

- IC50 [1]: 0.107 µM
- IC50 [2]: 948 nM
- IC50 [3]: 3640 nM
Structure (SMILES): Nc1nc2[nH]c(CC(=O)NCCCC(=O)N[C@@H](CCC(=O)O)C(=O)O)cc2c(=O)[nH]1

- IC50 [1]: 0.092 µM
- IC50 [2]: 1100 nM
- IC50 [3]: 2380 nM
Structure (SMILES): Nc1nc2[nH]c(CC(=O)NCCC(=O)N[C@@H](CCC(=O)O)C(=O)O)cc2c(=O)[nH]1

- IC50 [1]: 0.043 µM
- IC50 [2]: 1140 nM
- IC50 [3]: 3810 nM
Structure (SMILES): Nc1nc2[nH]c(CC(=O)NCCCCC(=O)N[C@@H](CCC(=O)O)C(=O)O)cc2c(=O)[nH]1

- IC50 [1]: 7.8 ×10⁻⁵ uM
- IC50 [2]: 786 nM
- IC50 [3]: 913 nM
- inhibition [4]: inactive
- inhibition [5]: inactive
- inhibition [6]: inactive
- inhibition [7]: Active
- inhibition [8]: Active
Structure (SMILES): Nc1nc2[nH]c(CC(=O)NCC(=O)N[C@@H](CCC(=O)O)C(=O)O)cc2c(=O)[nH]1
- Ratio IC50 [30]: 140
- Ratio IC50 [31]: 1000
- inhibition at 0.1 µM [20]: > 90%
- Activity [23]: 44.96%
- Activity [24]: 2.43%
- Activity [25]: 52.6%
- Activity [26]: 57.9%
- Activity [27]: 35.4%
- Activity [28]: 6.4%
- Activity [29]: 0.3%
